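Tested at 5 concentrations; 48 h exposure; 96-well plates; endpoints linearly interpolated, else capped at highest concentration. GI50 = concentration required for 50% inhibition of growth. The concentration for full growth arrest is given as TGI.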
Legend:
Experiment in all cases: NCI-60 cell line screen, 48 h
ACHN renal = system: ACHN renal
EKVX NSCLC = system: EKVX NSCLC
HCT-116 colon = system: HCT-116 colon
KM12 colon = system: KM12 colon
MALME-3M melanoma = system: MALME-3M melanoma
NCI-H460 lung = system: NCI-H460 lung
SK-MEL-2 melanoma = system: SK-MEL-2 melanoma
SNB-75 CNS = system: SNB-75 CNS
UACC-62 melanoma = system: UACC-62 melanoma
SF-539 CNS = system: SF-539 CNS

| Compound | TGI (ACHN renal) | TGI (EKVX NSCLC) | TGI (HCT-116 colon) | TGI (KM12 colon) | TGI (MALME-3M melanoma) | TGI (NCI-H460 lung) | TGI (SK-MEL-2 melanoma) | TGI (SNB-75 CNS) | TGI (UACC-62 melanoma) | GI50 (ACHN renal) | GI50 (EKVX NSCLC) | GI50 (HCT-116 colon) | GI50 (MALME-3M melanoma) | GI50 (NCI-H460 lung) | GI50 (SF-539 CNS) | TGI (SF-539 CNS) | GI50 (SK-MEL-2 melanoma) | GI50 (SNB-75 CNS) | GI50 (UACC-62 melanoma) | GI50 (KM12 colon) |
| --- | --- | --- | --- | --- | --- | --- | --- | --- | --- | --- | --- | --- | --- | --- | --- | --- | --- | --- | --- | --- |
| CC(CO)[C@H]1OC(=O)C=C2[C@@]13O[C@@H]3[C@H]1OC(=O)[C@@]3(C)[C@H]4O[C@H]4C[C@@]2(C)[C@@H]13 (stereo partly specified) | 4 µM | 18.3 µM | > 28 µM | 14.9 µM | 8.46 µM | > 24.4 µM | 11.1 µM | 6.05 µM | 7.36 µM |  |  |  |  |  |  |  |  |  |  |  |
| CC[O-].CC[O-].O=C1C(=C([O-])c2ccccc2)C(=O)c2ccccc21.O=C1C(=C([O-])c2ccccc2)C(=O)c2ccccc21.[Ti+4] | > 100 µM | > 100 µM | > 100 µM |  | > 100 µM | > 100 µM | > 100 µM | > 100 µM | > 100 µM | > 100 µM | 24.3 µM | > 100 µM | > 100 µM | 42.9 µM | > 100 µM | > 100 µM | 66.3 µM | > 100 µM | > 100 µM |  |
| O=C(CC(C(=O)c1cccs1)c1ccc2c(c1)OCO2)c1ccc(Br)cc1 (stereo unspecified) | > 100 µM | > 100 µM |  | > 100 µM | > 100 µM | > 100 µM |  | > 100 µM | > 100 µM |  |  |  |  |  |  |  |  |  |  |  |
| Clc1ccc([O][In]([O]c2ccc(Cl)cn2)[O]c2ccc(Cl)cn2)nc1 |  | > 100 µM | > 100 µM | > 100 µM | > 100 µM | > 100 µM | > 100 µM | > 100 µM | > 100 µM |  | > 100 µM | > 100 µM | > 100 µM | > 100 µM | > 100 µM | > 100 µM | > 100 µM | > 100 µM | > 100 µM | > 100 µM |
| COc1ccc(C(C2=C(C)C(=O)c3ccccc3C2=O)c2ccc(C(C)C)cc(=O)c2O)cc1 (stereo unspecified) | 9.96 µM |  | 14.7 µM | > 100 µM | > 100 µM | 12.6 µM | 22.3 µM | 6.47 µM |  |  |  |  |  |  |  | 5.8 µM |  |  |  |  |
| CC1(C)N=C(N)N=C(N)N1c1ccc(CCc2ccccc2)c(Cl)c1 | > 100 µM |  | 14 µM | 7.61 µM | 19 µM | 11.6 µM | 17.5 µM | 12.7 µM | 11.7 µM | 1.97 µM |  | 0.0347 µM | 0.728 µM | 0.042 µM | 0.131 µM | 12.4 µM | 1.01 µM | 0.517 µM | 0.0572 µM | 0.0994 µM |
| CC(C)N(C(=O)C12C3C4C1C1C2C3C41C(O)C(C)(C)C)C(C)C (stereo unspecified) | > 50 µM | > 50 µM | > 50 µM |  | > 50 µM |  |  | > 50 µM | > 50 µM |  |  |  |  |  |  | > 50 µM |  |  |  |  |
| S=C(N/N=C/c1cc(Cl)cc(Cl)c1)NC12CC3CC(CC(C3)C1)C2 | 8.05 µM |  | > 100 µM | > 100 µM | 50.7 µM | > 100 µM | > 30.3 µM | 5.46 µM | > 100 µM | 2.29 µM |  | 5.24 µM | 5.12 µM | 2.66 µM | 8.85 µM | > 100 µM | 7.74 µM | 2 µM | 10.2 µM | > 100 µM |
| CC(=O)N(CCN)CCN | > 100 µM | > 100 µM | > 10 µM | > 10 µM |  | > 10 µM | > 100 µM | > 100 µM | > 100 µM |  |  |  |  |  |  |  |  |  |  |  |
| CCN(c1ccc(CO)c(Cl)c1)C(C)c1ccc(F)cc1 (stereo unspecified) | 27.7 µM |  | 17.4 µM | 32.5 µM | 31.8 µM | 23.7 µM | 28 µM | 26.8 µM | 16.9 µM | 14.2 µM |  | 4.22 µM | 16.7 µM | 7.88 µM | 16.5 µM | 30.8 µM | 13.2 µM | 13 µM | 3.79 µM | 17 µM |
| CC(C)c1ccc2nc3ccc(C(=O)NCCN(C)C)cn3c(=O)c2c1 | 94.2 µM | 34.7 µM | 27.7 µM | 33 µM | 23.1 µM | 33.7 µM |  | 22.5 µM | 32.3 µM |  |  |  |  |  |  | 29.2 µM |  |  |  |  |
| Clc1ccccc1NN(Cc1ccccn1)c1ccccc1Cl | > 100 µM | 52.5 µM | 28.8 µM | 32.9 µM | 37.4 µM |  | 32.6 µM | 41.7 µM | 43.8 µM |  |  |  |  |  |  | 36.6 µM |  |  |  |  |
| Cc1cc(O)c2c(c1)C(O)(c1ccc3c(c1O)C(=O)c1c(O)cc(C)cc1C3(O)C1OC(CO)C(O)C(O)C1O)c1cccc(O)c1C2=O (stereo unspecified) | 25.8 µM | 28.2 µM | 24.1 µM | 24 µM | 25.5 µM | 27.9 µM |  | 27.5 µM | 25.3 µM |  |  |  |  |  |  | 26.5 µM |  |  |  |  |
| Nc1cc(N)c2nc(-c3ccccc3)c(Oc3ccc(F)cc3)nc2c1 | 85.9 µM | 33.7 µM | 80.7 µM | 40.3 µM |  | > 100 µM | > 100 µM | 49.4 µM | 33.2 µM | 21.8 µM | 14.6 µM | 14.8 µM |  | 39.6 µM | 18.1 µM | 35.7 µM | 43 µM | 23.5 µM | 15.8 µM | 14.5 µM |
| COc1ccc2nc(-c3ccccc3)cc(Nc3cccc(/C(C)=N\O)c3)c2c1 | > 100 µM | 86.9 µM | > 100 µM |  | 20.2 µM | > 100 µM | > 100 µM | > 100 µM | 30.5 µM | 7.29 µM | 19.2 µM | 2.58 µM | 4.29 µM | 6.84 µM | 6.61 µM | 24.8 µM | 55.7 µM | 4.49 µM | 5.42 µM |  |
| C=C1C(=O)O[C@@H]2C[C@@]3(C)CC(=O)C=C(C)[C@@H]3C[C@H]12 | 8.69 µM | 28.8 µM | 20.2 µM | 37.9 µM | 21.7 µM |  | 29.8 µM | 39.6 µM | 30.4 µM |  |  |  |  |  |  | 36.2 µM |  |  |  |  |
| O=c1nc(-c2ccccc2)c2c3c(cccn13)CCC2 | > 100 µM |  | > 100 µM | > 100 µM | > 100 µM | > 100 µM | > 100 µM | > 100 µM | > 100 µM |  |  |  |  |  |  | > 100 µM |  |  |  |  |
| COc1cc(-c2csc(NC(=O)c3cc(C(F)(F)F)cc(C(F)(F)F)c3)n2)cc(OC)c1OC | > 100 µM | > 100 µM |  | > 100 µM |  | > 100 µM | 4.81 µM | > 100 µM |  | 3.42 µM | 2.47 µM |  |  | 2.97 µM | 3.35 µM | > 100 µM | 1.6 µM | 2.83 µM |  | 2.86 µM |
| O=c1oc2ccccc2c(O)c1C=NC(=S)c1ccncc1 | > 100 µM | > 100 µM | > 100 µM | > 100 µM |  | > 100 µM | > 100 µM | > 100 µM | > 100 µM |  |  |  |  |  |  | > 100 µM |  |  |  |  |
| CCC1(Br)C(=O)NC(=O)N(C2CC(O)C(CO)O2)C1N=[N+]=[N-] (stereo unspecified) | > 100 µM | > 100 µM |  |  | > 100 µM | > 100 µM | > 100 µM | > 100 µM | > 100 µM |  |  |  |  |  |  | > 100 µM |  |  |  |  |
| O=[N+]([O-])c1ccc(N=Nc2c(O)[nH]c3ccc([N+](=O)[O-])cc23)cc1 | 76.4 µM | > 100 µM |  | 30.8 µM |  | 26.4 µM | > 100 µM | > 100 µM | 36.5 µM |  |  |  |  |  |  | 33.4 µM |  |  |  |  |
| COC(=O)C1=CCON(c2ccccc2)C1c1ccccc1 (stereo unspecified) | > 100 µM | > 100 µM |  | > 100 µM | > 100 µM | > 100 µM | > 100 µM | > 100 µM | > 100 µM |  |  |  |  |  |  | > 100 µM |  |  |  |  |
| CON(C)C(=O)C(C)NC(=O)OCc1ccccc1 (stereo unspecified) | > 100 µM | > 100 µM | > 100 µM | > 100 µM | > 100 µM | > 100 µM |  | > 100 µM | > 100 µM |  |  |  |  |  |  | > 100 µM |  |  |  |  |
| O=C1c2ccccc2N2OC3(N4CCCC4)CCCC3C12c1ccccc1 (stereo unspecified) | > 100 µM | > 100 µM | > 100 µM |  | > 100 µM |  |  | > 100 µM | > 100 µM |  |  |  |  |  |  | > 100 µM |  |  |  |  |
| O=C(c1ccccc1)c1c(CC(O)c2cccnc2)n(C(=O)c2ccccc2)c2ccccc12 (stereo unspecified) | 82.7 µM |  | 30.8 µM | 36.3 µM | 43.3 µM | 36.4 µM | 35.8 µM | 32.4 µM | 34.3 µM |  |  |  |  |  |  | 30.6 µM |  |  |  |  |
| Cc1cc([N+](=O)[O-])c(C)c2c1[nH]c1ccc(/C(CCC3CCCC3)=N\N)cc12 | 28.8 µM | 32 µM | 21.7 µM | 34.9 µM | 32 µM | > 100 µM | 30.2 µM | 46.7 µM |  |  |  |  |  |  |  | 34.8 µM |  |  |  |  |
| Cc1c(C)c2cc3c(=O)ccoc3c(C)c2oc1=O | > 100 µM | > 100 µM |  | > 100 µM | > 100 µM | > 100 µM | > 100 µM | 85.2 µM | > 100 µM |  |  |  |  |  |  | > 100 µM |  |  |  |  |
| O=C1[C@@H](c2ccc(Cl)cc2)[C@H]2CC=C[C@H]2N1O |  | > 100 µM |  | > 100 µM | > 100 µM |  | > 100 µM | > 100 µM | > 100 µM |  |  |  |  |  |  | > 100 µM |  |  |  |  |
| Nc1nc2c(ncn2Cc2ccccc2CCO)c(=O)[nH]1 | > 100 µM | > 100 µM |  | > 100 µM | > 100 µM | > 100 µM | > 100 µM | > 100 µM | > 100 µM |  |  |  |  |  |  |  |  |  |  |  |
